The record followed here is patent publication US20240239796A1, “CRYSTALLINE POLYMORPHS OF EPIDERMAL GROWTH FACTOR RECEPTOR INHIBITOR, AND COMPOSITIONS AND METHODS THEREOF” (Crimson BioPharm Inc., priority 2022, published 2024).

The data set can be described thus: Form conversion on heating / desolvation (XRPD, FIG. 5, FIG. 8). The class given is physicochemical. Conditions: heated to 200° C.

Turning to `C=CC(=O)Nc1cc(Nc2nccc(-n3ccc4cccnc43)n2)c(OC)cc1N(C)CCN(C)C.Cc1ccc(S(=O)(=O)O)cc1` [Form IV, N-(5-((4-(1H-pyrrolo[2,3-b]pyridin-1-yl)pyrimidin-2-yl)amino)-2-((2-(dimethylamino)ethyl)(methyl)amino)-4-methoxyphenyl)acrylamide tosylate salt], the “form conversion on heating” value was “convert to crystalline Form III”.
